Data taken from patent publication US8501783B2, “Conformationally restricted urea inhibitors of soluble epoxide hydrolase” (The Regents of the University of California, priority 2006, dated 2013).
pIC50: −log10 of the molar value. Where two headings read alike, the source gives them in different places.

Experiments:
[1] = Pharmacokinetic screening in dogs, oral administration, plasma LC-MS/MS; conditions: for LC/MS analysis, plasma level at time 0 / LC/MS analysis, plasma level at time 15 / LC/MS analysis, plasma level at time 30 / LC/MS analysis, plasma level at time 60 / LC/MS analysis, plasma level at time 120 / LC/MS analysis, plasma level at time 180 / LC/MS analysis, plasma level at time 240 / LC/MS analysis, plasma level at time 300 / LC/MS analysis, plasma level at time 360 / LC/MS analysis, plasma level at time 480 / LC/MS analysis, plasma level at time 1440: single oral dose (0.3 mg/kg per FIG. 1); for LC/MS analysis, plasma level at time 0: time 0 min; for LC/MS analysis, plasma level at time 15: time 15 min; for LC/MS analysis, plasma level at time 30: time 30 min; for LC/MS analysis, plasma level at time 60: time 60 min; for LC/MS analysis, plasma level at time 120: time 120 min; for LC/MS analysis, plasma level at time 180: time 180 min; for LC/MS analysis, plasma level at time 240: time 240 min; for LC/MS analysis, plasma level at time 300: time 300 min; for LC/MS analysis, plasma level at time 360: time 360 min; for LC/MS analysis, plasma level at time 480: time 480 min; for LC/MS analysis, plasma level at time 1440: time 1440 min
[2] = Solubility in oil of the dosing preparation (compound in Crisco); type: physicochemical; conditions: appearance in oil, in parentheses after compound number
From the text: The dogs are fed immediately thereafter.

[3] = molecular target: human sEH (Homo sapiens (Human), UniProt P34913); assay: Inhibition of human soluble epoxide hydrolase (IC50; one of three substrate methods); type: biochemical;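 note: enzyme expressed in baculovirus and affinity-purified, assays run in triplicate, with substrate and read-out differing among the three methods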
Chain of human sEH (P34913 whole entry): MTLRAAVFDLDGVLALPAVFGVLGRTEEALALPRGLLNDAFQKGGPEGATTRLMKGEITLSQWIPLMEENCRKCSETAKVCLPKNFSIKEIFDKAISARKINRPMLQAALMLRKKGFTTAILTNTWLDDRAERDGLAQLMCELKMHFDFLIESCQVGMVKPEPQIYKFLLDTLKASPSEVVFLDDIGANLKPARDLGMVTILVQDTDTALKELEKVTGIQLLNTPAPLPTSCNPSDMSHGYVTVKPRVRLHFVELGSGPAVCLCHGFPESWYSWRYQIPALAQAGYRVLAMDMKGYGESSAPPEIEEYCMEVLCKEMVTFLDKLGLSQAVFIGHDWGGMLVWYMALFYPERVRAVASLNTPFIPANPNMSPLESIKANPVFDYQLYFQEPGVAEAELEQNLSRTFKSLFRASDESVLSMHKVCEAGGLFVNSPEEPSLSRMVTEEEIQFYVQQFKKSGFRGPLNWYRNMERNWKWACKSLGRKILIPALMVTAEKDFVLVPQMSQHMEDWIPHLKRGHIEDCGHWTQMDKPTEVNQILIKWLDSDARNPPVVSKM

| pIC50 ([3]; recombinant human sEH) | Compound | LC/MS analysis, plasma level at time 0 ([1]; dogs) | LC/MS analysis, plasma level at time 15 ([1]; dogs) | LC/MS analysis, plasma level at time 30 ([1]; dogs) | LC/MS analysis, plasma level at time 60 ([1]; dogs) | LC/MS analysis, plasma level at time 120 ([1]; dogs) | LC/MS analysis, plasma level at time 180 ([1]; dogs) | LC/MS analysis, plasma level at time 240 ([1]; dogs) | LC/MS analysis, plasma level at time 300 ([1]; dogs) | LC/MS analysis, plasma level at time 360 ([1]; dogs) | LC/MS analysis, plasma level at time 480 ([1]; dogs) | LC/MS analysis, plasma level at time 1440 ([1]; dogs) | solubility in oil [2] | AUC ([1]; dog, plasma, po, 0.3 mg/kg) [µM·h] | AUCINF_D_pred ([1]; dogs, oral, dose-normalised) [kg·nM·min/mg] | pIC50 [3] |
| --- | --- | --- | --- | --- | --- | --- | --- | --- | --- | --- | --- | --- | --- | --- | --- | --- |
| 8.96 | COC(=O)c1ccc(C(=O)N2CCC(NC(=O)NC34CC5CC(CC(C5)C3)C4)CC2)cc1 [Compound 1204, 4-[4-(3-Adamantan-1-yl-ureido)-piperidine-1-carbonyl]-benzoic acid methyl ester] | 0.00 | 0.00 | 0.19 | 0.34 | 0.11 | 0.00 | 0.00 | 0.00 | 0.00 | 0.00 | 0.00 | 1204 (Opaque) | – | – | – |
| – | CCC(=O)N1CCC(NC(=O)NC23CC4CC(CC(C4)C2)C3)CC1 [Compound 1163, N-(1-propionylpiperidin-4-yl)-N′-(adamant-1-yl)urea] | 0.00 | 5.70 | 16.05 | 31.79 | 24.00 | 14.55 | 10.05 | 7.20 | 4.95 | 1.50 | 0.00 | 1163 (Opaque) | 0.0933 | 18504 | 8.50 |
